Counter-ions that a name gives are not always drawn. Like-named read-outs stand apart in the source and are kept apart here.
Test: APCC in vivo screen: blood cholesterol in male Sprague-Dawley rats on high fat, high cholesterol diet with 0.5% cholic acid
Details: high fat high cholesterol diet overnight; for % Change (mg/dl) (cholesterol) / change in vivo at 30 mg/kg: single dose 30 mg/kg; for % Change (mg/dl) (cholesterol): 30 mg/kg; for change in vivo at 30 mg/kg / change in vivo at 50 mg/kg: read-out: % Change (mg/dl) (cholesterol); for change in vivo at 50 mg/kg: single dose 50 mg/kg (*)
Source text: In one in vivo screen designated APCC, male Sprague-Dawley rats (200 to 225 g) were randomly divided into treatment groups and dosed at 4 PM with either vehicle (CMC/Tween) or suspensions of compounds in vehicle. The normal chow diet was then replaced with a high fat, high cholesterol diet with 0.5% cholic acid. The rats consumed this diet ad libitum during the night and were sacrificed at 8 AM to obtain blood samples for cholesterol analysis using standard procedures. Statistical differences between mean cholesterol values for the same vehicle were determined using analysis of variance followed by Fisher's least significant test. The compounds were dosed at 30 mg/kg unless otherwise noted.

SMILES | change in vivo at 30 mg/kg (Rattus norvegicus) | also measured
Cc1cc(C(C)(C)C)c(OC(=O)NS(=O)(=O)N(C)CCc2ccccn2)c(C(C)(C)C)c1 [Example 33, 2,6-Bis(1,1-dimethylethyl)-4-methylphenyl[[[methyl 2-(2-pyridinyl)ethyl]amino]sulfonyl]carbamate, sodium salt] | – | % Change (mg/dl) (cholesterol) (rat, sodium salt): -22 % Change (mg/dl)
CCCCCCCCN(CCCCCCCC)S(=O)(=O)NC(=O)Oc1c(C(C)(C)C)cc(C)cc1C(C)(C)C [Example 31, 2,6-Bis(1,1-dimethylethyl)-4-methylphenyl[(dioctylamino)sulfonyl]carbamate] | 0% | –
CCCCCN(CCCCC)S(=O)(=O)NC(=O)Oc1c(C(C)C)cccc1C(C)C [Example 42, 2,6-Bis(1-methylethyl)phenyl[(dipentylamino)sulfonyl]carbamate] | -74% | –
CCCCCCCCN(CCCCCCCC)S(=O)(=O)NC(=O)Oc1c(C(C)C)cccc1C(C)C [Example 38, 2,6-Bis(1-methylethyl)phenyl[(dioctylamino)sulfonyl]carbamate] | -70% | –
CC(C)c1cccc(C(C)C)c1OC(=O)NS(=O)(=O)N(c1ccccc1)c1ccccc1 [Example 10, 2,6-bis(1-methylethyl)phenyl[(diphenylamino)sulfonyl]carbamate] | -67% | –
CC(C)(C)c1cccc(C(C)(C)C)c1OC(=O)NS(=O)(=O)Nc1ccccc1 [Example 8, 2,6-bis(1,1-dimethylethyl)phenyl[(phenylamino)sulfonyl]carbamate] | – | change in vivo at 50 mg/kg (Rattus norvegicus): -26%
COc1cc(C(C)(C)C)c(OC(=O)NS(=O)(=O)NCC(c2ccccc2)c2ccccc2)c(C(C)(C)C)c1 [Example 3] | -55% | –
CCCCCCNS(=O)(=O)NC(=O)Oc1c(C(C)C)cccc1C(C)C [Example 37, 2,6-Bis(1-methylethyl)phenyl[(hexylamino)sulfonyl]carbamate] | -58% | –
Cc1cc(C(C)(C)C)c(OC(=O)NS(=O)(=O)Nc2ccccc2)c(C(C)(C)C)c1 [Example 21, 2,6-Bis(1,1-dimethylethyl)-4-methylphenyl[(phenylamino)sulfonyl]carbamate] | – | change in vivo at 50 mg/kg (Rattus norvegicus): -33%
CC(C)c1cccc(C(C)C)c1OC(=O)NS(=O)(=O)NCC(c1ccccc1)c1ccccc1 [Example 15] | – | change in vivo at 50 mg/kg (Rattus norvegicus): -29%
Cc1cc(C(C)(C)C)c(OC(=O)NS(=O)(=O)NC(c2ccccc2)c2ccccc2)c(C(C)(C)C)c1 [Example 18, 2,6-Bis(1,1-dimethylethyl)-4-methylphenyl[[(diphenylmethyl)amino]sulfonyl]carbamate] | – | change in vivo at 50 mg/kg (Rattus norvegicus): -42%
CC(C)(C)c1cccc(C(C)(C)C)c1OC(=O)NS(=O)(=O)NCC(c1ccccc1)c1ccccc1 [Example 7, 2,6-bis(1,1-dimethylethyl)phenyl[[(2,2-diphenylethyl)amino]sulfonyl]carbamate] | – | change in vivo at 50 mg/kg (Rattus norvegicus): -32%
CCCCCCCCN(C)S(=O)(=O)NC(=O)Oc1c(C(C)(C)C)cc(C)cc1C(C)(C)C [Example 29, 2,6-Bis(1,1-dimethylethyl)-4-methylphenyl[(methyloctylamino)sulfonyl]carbamate] | -55% | –
CC(C)c1cccc(C(C)C)c1OC(=O)NS(=O)(=O)N(Cc1ccccc1)Cc1ccccc1 [Example 12, 2,6-Bis(1-methylethyl)phenyl[[bis(phenylmethyl)amino]sulfonyl]carbamate] | -43% | –
CC(C)c1cccc(C(C)C)c1NS(=O)(=O)NC(=O)Oc1c(C(C)(C)C)cccc1C(C)(C)C [Example 6, 2,6-bis(1,1-dimethylethyl)phenyl[[[2,6-bis(1-methylethyl)phenyl]amino]sulfonyl]carbamate] | – | change in vivo at 50 mg/kg (Rattus norvegicus): -57%
CC(C)c1cccc(C(C)C)c1OC(=O)NS(=O)(=O)N(C(C)C)C1CCCCC1 [Example 39, 2,6-Bis(1-methylethyl)phenyl[[cyclohexyl(1-methylethyl)amino]sulfonyl]carbamate] | -60% | –
Cc1cc(C(C)(C)C)c(OC(=O)NS(=O)(=O)Nc2c(C(C)C)cccc2C(C)C)c(C(C)(C)C)c1 [Example 19] | – | change in vivo at 50 mg/kg (Rattus norvegicus): -56%
CCCCN(CCCC)S(=O)(=O)NC(=O)Oc1c(C(C)(C)C)cc(C)cc1C(C)(C)C [Example 22, 2,6-Bis(1,1-dimethylethyl)-4-methylphenyl[(dibutylamino)sulfonyl]carbamate] | -4% | –
CCCCCCCCCCCCOC(=O)NS(=O)(=O)Nc1c(C(C)C)cccc1C(C)C [Example 2] | – | change in vivo at 30 mg/kg (rat): 0%
CC(C)c1cccc(C(C)C)c1OC(=O)NS(=O)(=O)N1CCc2ccccc21 [Example 54] | -77% | –
CCCCCCCCCCN(CCCCCCCCCC)S(=O)(=O)NC(=O)Oc1c(C(C)(C)C)cc(C)cc1C(C)(C)C [Example 34] | -4% | –

SMILES | change in vivo at 30 mg/kg (Rattus norvegicus) | also measured
CCCCCCCCCCCCOC(=O)NS(=O)(=O)Nc1c(OC)cc(OC)cc1OC [Example 43, Dodecyl[[(2,4,6-trimethoxyphenyl)amino]sulfonyl]carbamate] | – | change in vivo at 30 mg/kg (rat): -8%
CN(C(=O)Oc1c(C(C)(C)C)cccc1C(C)(C)C)S(=O)(=O)NC(c1ccccc1)c1ccccc1 [Example 58, 2,6-bis(1,1-dimethylethyl)phenyl[[(diphenylmethyl)amino]sulfonyl]methyl carbamate] | 4% | –
CC(C)(C)c1cccc(C(C)(C)C)c1OC(=O)NS(=O)(=O)N(Cc1ccccc1)Cc1ccccc1 [Example 9] | – | change in vivo at 50 mg/kg (Rattus norvegicus): -3%
CCCCCN(CCCCC)S(=O)(=O)NC(=O)Oc1c(C(C)(C)C)cc(C)cc1C(C)(C)C [Example 23, 2,6-Bis(1,1-dimethylethyl)-4-methylphenyl[(dipentylamino)sulfonyl]carbamat] | -42% | –
CC(C)c1cccc(C(C)C)c1OC(=O)NS(=O)(=O)Nc1nc2ccccc2[nH]1 [Example 13, 2,6-Bis(1-methylethyl)phenyl[(1H-benzimidazol-2-ylamino)sulfonyl]carbamate] | 8% | –
CCCCCCN(CCCCCC)S(=O)(=O)NC(=O)Oc1c(C(C)(C)C)cc(C)cc1C(C)(C)C [Example 25, 2,6-Bis(1,1-dimethylethyl)-4-methylphenyl[(dihexylamino)sulfonyl]carbamate] | -40% | –
CCCCCCNS(=O)(=O)NC(=O)Oc1c(C(C)(C)C)cc(C)cc1C(C)(C)C [Example 26, 2,6-Bis(1,1-dimethylethyl)-4-methylphenyl[(hexylamino)sulfonyl]carbamate] | -52% | –
CCCCN(CCCC)S(=O)(=O)NC(=O)Oc1c(C(C)C)cccc1C(C)C [Example 57, 2,6-bis(1-methylethyl)phenyl[(dibutylamino)sulfonyl]carbamate monosodium salt] | – | % Change (mg/dl) (cholesterol) (rat, monosodium salt): -66 % Change (mg/dl)
Cc1cc(C(C)(C)C)c(OC(=O)NS(=O)(=O)N(C(C)C)C(C)C)c(C(C)(C)C)c1 [Example 24, 2,6-Bis(1,1-dimethylethyl)-4-methylphenyl[[bis(1-methylethyl)amino]sulfonyl]carbamate] | -19% | –
CC(C)c1cccc(C(C)C)c1OC(=O)NS(=O)(=O)N(C(C)C)C(C)C [Example 35, 2,6-Bis(1-methylethyl)phenyl[[bis(1-methylethyl)amino]sulfonyl]carbamate] | -76% | –
CC(C)c1cccc(C(C)C)c1OC(=O)NS(=O)(=O)N(Cc1ccccc1)C(C)C [Example 36] | -70% | –
CC(C)c1cccc(C(C)C)c1OC(=O)NS(=O)(=O)N1CCCC1 [Example 52, 2,6-Bis(1-methylethyl)-phenyl ester(1-pyrrolidinylsulfonyl)-carbamic acid] | -53% | –
CC(C)c1cccc(C(C)C)c1NS(=O)(=O)NC(=O)Oc1c(C(C)C)cccc1C(C)C [Example 16, 2,6-Bis(1-methylethyl)phenyl[[[2,6-bis(1-methylethyl)phenyl]amino]sulfonyl]carbamate] | – | change in vivo at 50 mg/kg (Rattus norvegicus): -65%
CC(C)c1cccc(C(C)C)c1OC(=O)NS(=O)(=O)NC(c1ccccc1)c1ccccc1 [Example 17, 2,6-Bis(1-methylethyl)phenyl[[(diphenylmethyl)amino]sulfonyl]carbamate] | – | change in vivo at 50 mg/kg (Rattus norvegicus): -46%
Cc1cc(C(C)(C)C)c(OC(=O)NS(=O)(=O)N(CC2CCCO2)CC2CCCO2)c(C(C)(C)C)c1 (centres unmarked) [Example 30, 2,6-Bis(1,1-dimethylethyl)4-methylphenyl[[bis[(tetrahydro-2-furanyl)methyl]amino]sulfonyl]carbamate] | 2% | –
Cc1cc(C(C)(C)C)c(OC(=O)NS(=O)(=O)N(CCCN(C)C)CCCN(C)C)c(C(C)(C)C)c1 [Example 28, 2,6-Bis(1,1-dimethylethyl)-4-methylphenyl[[[bis-3-(di-methylamino)propyl]amino]sulfonyl]carbamate] | – | change in vivo at 30 mg/kg (rat): -13%
COc1cc(C(C)(C)C)c(OC(=O)NS(=O)(=O)Nc2c(C(C)C)cccc2C(C)C)c(C(C)(C)C)c1 [Example 4, 2,6-bis(1,1-dimethylethyl)-4-methoxy phenyl[[[2,6-bis(1-methylethyl)phenyl]amino]sulfonyl]carbamate] | -77% | –
CC(C)(C)c1cccc(C(C)(C)C)c1OC(=O)NS(=O)(=O)NC(c1ccccc1)c1ccccc1 [Example 5, 2,6-bis(1,1-dimethylethyl)phenyl[[(diphenylmethyl)amino]sulfonyl]carbamate] | – | change in vivo at 50 mg/kg (Rattus norvegicus): -35%
CC(C)c1cccc(C(C)C)c1OC(=O)NS(=O)(=O)Nc1ccccc1 [Example 14, 2,6-Bis(1-methylethyl)phenyl[(phenylamino)sulfonyl]carbamate] | – | change in vivo at 50 mg/kg (Rattus norvegicus): -55%
CCCCCCN(CCCCCC)S(=O)(=O)NC(=O)Oc1c(C(C)C)cccc1C(C)C [Example 41, 2,6-Bis(1-methylethyl)phenyl[(dihexylamino)sulfonyl]carbamate] | -62% | –

Reference: US5336690A, “Aminosulfonyl carbamates composition and method of use to treat hypercholesterolemia and atherosclerosis” (Warner-Lambert Company, priority 1993, dated 1994)
